Measurements from article PMC12156041, “Design, Synthesis and Antiplasmodial Activities of a Library of Fluorine-Based 3-Benzylmenadiones” (Molecules, 2025).
Converted amounts (≈) assume the structure as drawn. “And” between values parts separate entries of the source, which are not always exact repeats. Equal entries are not always repeated. Where two headings read alike, the source gives them in different places.

Tests used:
[1] = tested on: P. falciparum NF54 strain; test: P. falciparum NF54 [3H]hypoxanthine incorporation assay, 72 h, 0.5% Albumax; format: cell-based
[2] = tested on: P. falciparum NF54 strain; test: Serum shift assay, P. falciparum NF54 72 h in 50% human serum; conditions: for IC50: read-out: IC50 NF54 72 h, 50% Human Serum; for Serum Shift: 50% human serum versus 0.5% Albumax
[3] = tested on: P. berghei (GFP ANKA malaria strain); test: In vitro efficacy testing with P. berghei, 24 h (species shift assay); format: cell-based
[4] = tested on: P. falciparum NF54 strain; test: P. falciparum NF54 24 h assay (species shift assay); format: cell-based
[5] = tested on: P. berghei GFP ANKA malaria strain; test: Drug assay in vivo in P. berghei-infected mice; conditions: p.o. 4 × 50 mg/kg; for Parasitized RBC over 100: individual mice; for Parasitized RBC over 100 / Parasitized RBC over 100, Avg. / % of Control / Activity (%): day 4; for % of Control: parasitemia; for Activity (%): reduction of parasitemia versus control
[6] = Thermodynamic aqueous solubility (shake-flask, PBS-10% DMSO); format: physicochemical; conditions: PBS with 10% DMSO, aqueous with cosolvent or surfactant or cyclodextrin, PBS pH 7.4, 10% DMSO, 20 °C, read-out: Thermodynamic aq. Solubility in PBS-10% DMSO
Protocol: Thermodynamic Aqueous Solubility: The shake-flask method enabled us to determine the apparent thermodynamic solubilities of the DMSO stock solutions of the compounds. […] The mixture was equilibrated at 20 °C for 24 h. After centrifugation, the supernatant was injected into an HPLC column coupled to an LC-MS apparatus (with UV–Vis detection) in order to determine the compound concentration. […] These solutions were also injected in order to calibrate the concentration determination process. […] Measurements were performed in duplicate.

[7] = Chromatographic Hydrophobicity Index (CHI) by HPLC; format: physicochemical; conditions: for CHI: Chromatographic Hydrophobicity Index, lipophilicity index; for chromatographic logD: pH 7.4, read-out: log D7.4
Protocol: Determination of CHI values: Compound lipophilicity influences permeability and propensity to nonspecific binding to plasma proteins. Although precise, the classical “shake flask” method is not always appropriate for the determination of high hydrophobicity, which can be alternatively measured using the Chromatographic Hydrophobicity Index method. This HPLC-based technique leads to rapid and cheap estimates of partition coefficients. […] A measure of 5 μL was injected onto the HPLC (with UV–Vis detection). […] The measurements were performed in duplicate. […] The CHI is approximately equal to the proportion of acetonitrile in the mobile phase when the compound is eluted from the column.

[8] = tested on: P. falciparum NF54 strain; conditions: cited from earlier work
[9] = tested on: rat myoblast cell line (L6 cells); conditions: cited from earlier work
P. falciparum strain Dd2 = tested on: P. falciparum strain Dd2; parameters: method as in doi:10.1002/ejoc.201600144; conditions: multi-resistant P. falciparum strain Dd2 ref 12; cited from earlier work
[10] = Plasmodium falciparum, NF54, 72 h
[11] = Plasmodium falciparum, NF54, 72 h, read-out: IC50 NF54 72 h, 0.5% Albumax, Table 5B, 0.5% Albumax
[12] = Plasmodium falciparum, NF54, 72 h, read-out: IC50 Pf NF54, 72 h, Table 5A, species shift experiment
[13] = Plasmodium falciparum, NF54, as stated in text, read-out: IC50 against P. falciparum NF54
[14] = Plasmodium berghei, read-out: IC50 Pb, P. berghei, 24 h assay
[15] = Plasmodium falciparum, NF54, read-out: IC50 Pf NF54, 24 h assay

CHI [7] | chromatographic logD [7] | SMILES | IC50 [2, 10] | IC50 [1, 11] | IC50 [1, 12] | IC50 [1, 13] | Parasitized RBC over 100 ([5]; 50 mg/kg) | Avg. Mouse Survival [5] | Parasitized RBC over 100, Avg. [5] | % of Control [5] | Serum Shift [2] | IC50 [3, 14] | solubility thermodynamic at 24 h [6] | IC50 [4, 15] | IC50 ([8]; grey line ref 9) | Tox/L6 ([9]; grey line ref 9) | also measured
– | – | CC1=C(Cc2ccc(OC(F)(F)F)cc2)C(=O)c2ccccc2C1=O [A-b-3] | 473 nM | – | – | – | – | – | – | – | – | – | – | – | – | – | IC50 [1, 10]: 83 nM; IC50 ([1]; Plasmodium falciparum, NF54, 72 h, read-out: IC50 NF54 72 h, 0.5% Albumax): 83 nM; IC50 ([1]; Plasmodium falciparum, NF54, 72 h, read-out: IC50 Pf NF54, 72 h): 83 nM; IC50 ([1]; Plasmodium falciparum, NF54, read-out: IC50 against P. falciparum NF54): < 100 nM; IC50 ([3]; Plasmodium berghei, 24 h, read-out: IC50 Pb, 24 h): 191 nM; IC50 ([4]; Plasmodium falciparum, NF54, 24 h, read-out: IC50 Pf NF54, 24 h): 223 nM
– | – | CC1=C(Cc2ccc(F)c(C(F)(F)F)c2)C(=O)c2ccccc2C1=O [A-b-9, 4′-fluoro-3′-trifluoromethyl-benzylmenadione] | 355 nM | 59 nM | 62 nM | < 100 nM | 70.3 and 49.1 and 52.4 | 4.0 days | 57.27 | 97.23% | 6.1 | 149 nM | 0.67 ± 0.01 µM (≈ 0.233 µg/mL) | 143 nM | – | – | IC50 ([1]; Plasmodium falciparum, NF54, 72 h, P. falciparum NF54, 72 h, read-out: IC50): 77 nM; Activity (%) [5]: 2.77%
97 | 3.75 | CC1=C(Cc2ccc(C#N)cc2)C(=O)c2ccccc2C1=O [A-b-10] | – | – | – | > 200 nM | – | – | – | – | – | – | 0.82 ± 0.01 µM (≈ 0.236 µg/mL) | – | – | – | IC50 ([8]; grey line ref 8): 374 nM; Tox/L6 ([9]; grey line ref 8): 112.5 µM
106 | 4.22 | COc1ccc(CC2=C(C)C(=O)c3ccccc3C2=O)cc1 [A-b-16] | – | – | – | – | – | – | – | – | – | – | 1.07 ± 0.02 µM (≈ 0.313 µg/mL) | – | – | – | –
107 | 4.26 | COc1ccc(OC)c(CC2=C(C)C(=O)c3ccccc3C2=O)c1 [A-b-26] | – | – | – | – | – | – | – | – | – | – | 0.59 ± 0.01 µM (≈ 0.19 µg/mL) | – | 67 nM | 158.5 µM | –
– | – | C[C@H]1[C@H](OC(=O)CCC(=O)O)O[C@@H]2O[C@@]3(C)CC[C@H]4[C@H](C)CC[C@@H]1[C@@]24OO3 [AS, artesunate, reference compound] | 1 nM | – | 4.8 nM | – | – | – | – | – | – | 13 nM | – | – | – | – | –
107 | 4.27 | COc1cc(CC2=C(C)C(=O)c3ccccc3C2=O)cc(OC)c1 [B-b-35] | – | – | – | < 100 nM | – | – | – | – | – | – | 0.75 ± 0.14 µM (≈ 0.242 µg/mL) | – | 52 nM | 70.3 µM | –
– | – | CCN(CC)CCCC(C)Nc1ccnc2cc(Cl)ccc12 (stereo not drawn) [CQ, reference compound] | – | – | – | – | – | – | – | – | – | – | – | – | – | – | IC50 ([1]; read-out: IC50 NF54 72 h, 0.5% Albumax, Table 5B, 0.5% Albumax): 5 nM; IC50 ([1]; read-out: IC50 Pf NF54, 72 h, Table 5A, species shift experiment): 11 nM; IC50 [2]: 6.6 nM; IC50 ([3]; read-out: IC50 Pb, 24 h, P. berghei, 24 h assay): 16 nM; IC50 ([4]; read-out: IC50 Pf NF54, 24 h, 24 h assay): 4.9 nM
– | – | CC1=C(Cc2ccc(C(F)(F)F)cc2)C(=O)c2ccc(F)cc2C1=O [Cpnd 7-F-PD] | 377 nM | 89 nM | 93 nM | – | 64.7 and 69.0 and 62.2 | 4.0 days | 65.30 | 110.87% | 4.2 | 138 nM | 0.59 ± 0.01 µM (≈ 0.205 µg/mL) | 157 nM | – | – | Activity (%) [5]: −10.87%

SMILES | CHI [7] | chromatographic logD [7] | IC50 [2, 10] | IC50 [1, 11] | IC50 [1, 12] | IC50 [1, 13] | Parasitized RBC over 100 ([5]; 50 mg/kg) | Avg. Mouse Survival [5] | Parasitized RBC over 100, Avg. [5] | % of Control [5] | Serum Shift [2] | IC50 [3, 14] | solubility thermodynamic at 24 h [6] | IC50 [4, 15] | IC50 ([8]; grey line ref 9) | Tox/L6 ([9]; grey line ref 9) | also measured
CC1=C(Cc2c(F)c(F)c(F)c(F)c2F)C(=O)c2ccccc2C1=O [A-b-47] | 115 | 4.67 | 324 nM | 81 nM | 91 nM | < 100 nM | 65.4 and 62.4 and 72.5 | 4.0 days | 66.77 | 113.36% | 4.0 | 265 nM | 0.33 ± 0.01 µM (≈ 0.116 µg/mL) | 184 nM | 60 nM | 161.0 µM | Activity (%) [5]: −13.36%
CC1=C(Cc2ccc(C(F)(F)F)cc2)C(=O)c2cc(F)ccc2C1=O [Cpnd 6-F-PD] | 117 | 4.75 | 80 nM | 93 nM | 120 nM | – | 28.2 and 35.8 and 27.8 | 7.0 days | 30.60 | 51.95% | 0.9 | 170 nM | 0.06 ± 0.01 µM (≈ 0.0209 µg/mL) | 104 nM | 181 nM | 44.7 µM | IC50 (P. falciparum strain Dd2): 59 ± 11 nM; Activity (%) ([5]; 50 mg/kg): 48.05%; Activity (%) ([5]; listed as 6-fluoro–plasmodione, 50 mg/kg): 50%
